Assays:
[1] = target: PHD2 enzyme (residues 181-417) (Homo sapiens (Human), UniProt Q9GZT9); assay: Inhibition of PHD enzyme (LC/MS peptide hydroxylation assay); type: biochemical; conditions: PHD2 (residues 181-417) 5 nM, 60 min pre-incubation; -log(IC50), IC50 molar
Outline: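 Hydroxylated peptide quantified by LC/MS after 60 min turnover of 1 uM biotinylated peptide with 2 uM 2-oxoglutarate and 1 mM ascorbate, stopped by excess tight-binding inhibitor. Beforehand, 5 nM enzyme and compound were preincubated 60 min at RT, pH 7.3 HEPES/KCl/TCEP/FeCl2/BSA buffer. Values as pIC50 (−log molar IC50).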

[2] = tested on: HIF1a protein in H9c2 rat cardiomyocytes; assay: Cell-based HIF-alpha stabilization assay (inhibition of PHD in cells); conditions: 24 hrs compound incubation, HIF1a protein by ELISA; for EC50: Rattus norvegicus, H9c2, 24 h, read-out: Inhibition of PHD in cells (pEC50) (converted)
Outline: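 HIF1a stabilization was measured by ELISA on lysates of H9c2 rat cardiomyocytes after 24 h exposure to 11 serial compound concentrations, expressed relative to the desferrioxamine maximum. Curve fits gave EC50. EC50pos denotes the concentration producing half the desferrioxamine maximal response.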

Sequence of PHD2 enzyme (residues 181-417) (Q9GZT9 181-417): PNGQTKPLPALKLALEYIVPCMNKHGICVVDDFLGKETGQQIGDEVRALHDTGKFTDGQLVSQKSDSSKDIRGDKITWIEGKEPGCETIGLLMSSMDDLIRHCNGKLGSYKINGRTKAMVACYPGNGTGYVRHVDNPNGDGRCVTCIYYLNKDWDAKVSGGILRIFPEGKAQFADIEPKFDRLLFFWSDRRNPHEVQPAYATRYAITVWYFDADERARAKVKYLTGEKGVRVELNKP

Structure (SMILES) | PHD Inhibition (pIC50) [1] | EC50 [2] [nM] | Inhibition of PHD in cells (pEC50) [2]
Cc1cc(C#N)ccc1-c1cnn(-c2ccc(C(=O)NC(C)C)cn2)c1O [Example 128, 6-(4-(4-cyano-2-methylphenyl)-5-hydroxy-1H-pyrazol-1-yl)-N-isopropylnicotinamide] | 7.04 | 145 | –
COCC1(NC(=O)c2ccc(-n3ncc(-c4ccc(C#N)cc4C)c3O)nc2)CCCC1 [Example 129, 6-(4-(4-cyano-2-methylphenyl)-5-hydroxy-1H-pyrazol-1-yl)-N-(1-(methoxymethyl)cyclopentyl)nicotinamide] | 7.14 | 186 | –
Cc1cc(C#N)ccc1-c1cnn(-c2ccc(C(=O)NCCCCO)cn2)c1O [Example 130, 6-(4-(4-cyano-2-methylphenyl)-5-hydroxy-1H-pyrazol-1-yl)-N-(4-hydroxybutyl)nicotinamide] | 7.27 | 417 | –
Cc1cc(C#N)ccc1-c1cnn(-c2ccc(C(=O)N[C@H]3CC[C@@H](O)CC3)cn2)c1O [Example 131, 6-(4-(4-cyano-2-methylphenyl)-5-hydroxy-1H-pyrazol-1-yl)-N-((1 s,4s)-4-hydroxycyclohexyl)nicotinamide] | 7.21 | 257 | –
Cc1cc(C#N)ccc1-c1cnn(-c2ccc(C(=O)N[C@H]3CC[C@H](O)CC3)cn2)c1O [Example 132, 6-(4-(4-cyano-2-methylphenyl)-5-hydroxy-1H-pyrazol-1-yl)-N-((1r,4r)-4-hydroxycyclohexyl)nicotinamide] | 7.26 | – | 6.59
Cc1cc(C#N)ccc1-c1cnn(-c2ccc(C(=O)NCC3CCCO3)cn2)c1O (centres unmarked) [Example 133, 6-(4-(4-cyano-2-methylphenyl)-5-hydroxy-1H-pyrazol-1-yl)-N-((tetrahydrofuran-2-yl)methyl)nicotinamide] | 7.17 | 195 | –
Cc1cc(C#N)ccc1-c1cnn(-c2ccc(C(=O)NC3CCC3)cn2)c1O [Example 134, 6-(4-(4-cyano-2-methylphenyl)-5-hydroxy-1H-pyrazol-1-yl)-N-cyclobutylnicotinamide] | 7.21 | 339 | –
COCC1(CNC(=O)c2ccc(-n3ncc(-c4ccc(C#N)cc4C)c3O)nc2)CC1 [Example 135, 6-(4-(4-cyano-2-methylphenyl)-5-hydroxy-1H-pyrazol-1-yl)-N-((1-(methoxymethyl)cyclopropyl)methyl)nicotinamide] | 7.15 | 148 | –
COCC(C)NC(=O)c1ccc(-n2ncc(-c3ccc(C#N)cc3C)c2O)nc1 (centres unmarked) [Example 136, 6-(4-(4-cyano-2-methylphenyl)-5-hydroxy-1H-pyrazol-1-yl)-N-(1-methoxypropan-2-yl)nicotinamide] | 7.13 | 112 | –
Cc1cc(C#N)ccc1-c1cnn(-c2ccc(C(=O)N[C@@H]3CCOC3)cn2)c1O [Example 137, (R)-6-(4-(4-cyano-2-methylphenyl)-5-hydroxy-1H-pyrazol-1-yl)-N-(tetrahydrofuran-3-yl)nicotinamide] | 7.21 | 245 | –
Cc1cc(C#N)ccc1-c1cnn(-c2ccc(C(=O)N[C@H](C)C3CC3)cn2)c1O [Example 138A, (R)-6-(4-(4-cyano-2-methylphenyl)-5-hydroxy-1H-pyrazol-1-yl)-N-(1-cyclopropylethyl)nicotinamide] | 6.95 | 302 | –
Cc1cc(C#N)ccc1-c1cnn(-c2ccc(C(=O)N[C@H]3CC[C@H](O)CC3)cn2)c1O [Example 139, 6-(4-(4-cyano-2-methylphenyl)-5-hydroxy-1H-pyrazol-1-yl)-N-((1r,4r)-4-hydroxycyclohexyl)nicotinamide] | 7.36 | – | 7.09
Cc1cc(C#N)ccc1-c1cnn(-c2ccc(C(=O)NC3CCN(C4CC4)CC3)cn2)c1O [Example 140, 6-(4-(4-cyano-2-methylphenyl)-5-hydroxy-1H-pyrazol-1-yl)-N-(1-cyclopropylpiperidin-4-yl)nicotinamide] | 8.1 | 120 | –

Reference: US10407409B2, “6-(5-hydroxy-1H-pyrazol-1-yl)nicotinamide inhibitors of PHD” (Takeda Pharmaceutical Company Limited, priority 2013, dated 2019)
